Entries after “also recorded” stand apart in the source; their conditions may differ.
Tests used:
[1] = Blood workup after HS-72 treatment; assay type: in vivo; conditions: wild-type mice, compared to control mice
Description: HS-72 in vivo MTD and blood workup: The 5 cohorts consisted of 3 mice each given HS-72 BiW and administered IP in DMSO at 1, 5, 10, 20 and 30 mpk using female FVBs aged to 10 weeks. Body Mass was measured weekly and the mice were monitored for signs of toxicity as per MP1U standard protocol. For blood analysis, 4 mice were injected IP with HS-72 on day 1 and 4, with blood drawn on day 5. 4 mice receiving no treatment were used as controls.

[2] = HS-72 PK in plasma, kidney and liver; assay type: in vivo, mice
Description: HS-72 PK: Wild-type mice were injected IP with HS-72 and sacrificed 5 minutes, 1 hour, 4 hours, 8 hours, and 24 hours post injection. Untreated animals were included as control and called 0 minutes. Each time point consisted of 3 animals. At the indicated time points liver, kidney, and blood was harvested from each animal. Whole blood was centrifuged and only the plasma was retained. Whole liver and kidneys were frozen and stored at −80° C. until processing. Before quantifying HS-72 in the plasma and tissue a standard curve was made using HS-72 and N-(1-methyl-1H-benzo[d]imidazol-2-yl)-1-(pyrazin-2-yl)piperidine-3-carboxamide (“HS-156”), as the internal standard. HS-72 and HS-156 were diluted in water and were further diluted 1:4 in acetonitrile. The resulting solution was then filtered through a 0.2 μm PTFE membrane (VWR, Radnor, Pa.). 15 uL of the solution was run through an Eclipse Plus C18 column (Agilent, Santa Clara, Calif.) and analyzed by an Agilent Ion Trap 6130 LC-MS (Agilent, Santa Clara, Calif.). The total ion chromatogram (TIC), extracted ion chromatogram (EIC), UV chromatogram, and mass spectra (MS) were obtained for each run. The area under the curve from the EIC for HS-72 at 364-366 and for HS-156 at 337 was determined. The EIC area ratio for HS-72 compared to HS-156 was calculated and this ratio was used to plot a standard curve based on the known concentrations of HS-72. The plasma samples were processed in the same manner as in the standard curve and analyzed by LC-MS. The resulting EIC ratios from HS-72 compared to HS-156 were then determined, which was used to calculate the concentration of HS-72 in the diluted sample. The concentration in solution of HS-72 was adjusted for the 1:4 dilution that occurs during sample preparation. The final concentration of HS-72 in plasma was calculated per mL of plasma. The liver and kidney samples were weighed and homogenized in tissue lysis buffer. The resulting homogenate was then processed in the same manner as the plasma samples. The resulting EIC ratios from HS-72 compared to HS-156 were then determined, which was used to calculate the concentration of HS-72 in the diluted sample. The concentration in solution of HS-72 was adjusted for the 1:4 dilution that occurs during sample preparation. Final concentration of HS-72 in the kidney and liver was calculated per gram of tissue using the weight of each tissue measured before sample processing.

RWPE1 = experiment: Cell proliferation, RWPE1; assay type: cell-based; conditions: non tumorigenic RWPE1
Description: Cell Proliferation: Cell proliferation was determined using a Hoechst stain (Sigma, St. Louis, Mo.) to quantify DNA. 5,000 cells of the designated cell line were plated in 96 well plates and treated the next day, designated as time point 0, with the indicated concentration of the specified compound maintained for the duration of the assay. At the indicated time points the media was removed and plated frozen at −80° C. Double distilled H2O was then added and the plates were incubated at 37° C. for 1 hour. After 1 hour the plates were frozen at −80° C. After freezing the plates were thawed and Hoechst stain was diluted 1:1000 in THE buffer (10 mM Tris, 2M NaCl, 1 mM Na2EDTA). The final fluorescence was measured on the Victor X2 plate reader at 355/460 nm, and cell proliferation was determined with the formula: % Cell Proliferation=100×(Sample fluorescence−background fluorescence)/(Control fluorescence−background fluorescence).

[3] = 24 hours, IP 20 mg/Kg, n=3, SEM

For `CCCn1c(NC(=O)[C@H]2CCCN(c3cnccn3)C2)nc2ccccc21` [HS-72, (S)—N-(1-propyl-1H-benzo[d]imidazol-2-yl)-1-(pyrazin-2-yl)piperidine-3-carboxamide], the complete blood count [1] was “no effect on complete blood count”, the kidney function [1] was “no effect on kidney function” and the liver function [1] was “no effect on liver function”. For the same compound, the plasma concentration ([2]; 5 minutes post IP injection, 20 mg/Kg, n=3, SEM) was 70 ± 30 µM, the kidney concentration ([2]; 5 minutes, IP 20 mg/Kg, n=3, SEM) was 0.43 ± 0.08 µmol/g and the plasma concentration ([2]; 8 hours post IP injection, 20 mg/Kg, n=3, SEM) was 2 ± 0.2 µM. It also gave a liver concentration (peak) ([2]; 8 hours, IP 20 mg/Kg, n=3, SEM) of 2.26 ± 0.5 µmol/g, a kidney concentration [2, 3] of 0.02 ± 0.004 µmol/g and a liver concentration [2, 3] of 0.51 ± 0.11 µmol/g. For the same compound, the “plasma [HS-72] maintained” value ([2]; for at least 8 hours) was > 20 µM, the concentration at 24 hours ([2]; mouse, plasma, 24 hours post IP injection, 20 mg/Kg, read-out: plasma concentration, trace amounts) was < 10 µM and the half-life ([2]; mouse, plasma, IP 20 mg/Kg, n=3, SEM, read-out: T1/2 elimination from plasma (converted)) was 24 ± 6 min. The “metabolism in plasma, kidney and liver” value ([2]; parent MS ion of 365.2 Da detected intact) was “no evidence of rapid metabolism” and the cell proliferation (RWPE1) was “insensitive; also recorded: only inhibited at the highest concentration tested”.

Source: US10000469B2, “Heat shock protein 70 (hsp-70) receptor ligands” (Duke University, priority 2014, dated 2018)
